In patent publication US11104661B1, “Inhibiting human integrin (α-4) (β-7)” (Morphic Therapeutic, Inc., priority 2019, dated 2021):

biological target: T1, α4β7 (Homo sapiens, UniProt P13612+P26010); assay: Cell adhesion assay, RPMI8866 cells on MAdCAM coated plates (Example 7); type: cell-based; details: RPMI8866 cells adhering to recombinant human MAdCAM; Table 3; read-out: CA Assay (Example 7)
T1 construct: endogenous in cells; host or cells: RPMI 8866 cells
T1 sequence (P13612 34-1032): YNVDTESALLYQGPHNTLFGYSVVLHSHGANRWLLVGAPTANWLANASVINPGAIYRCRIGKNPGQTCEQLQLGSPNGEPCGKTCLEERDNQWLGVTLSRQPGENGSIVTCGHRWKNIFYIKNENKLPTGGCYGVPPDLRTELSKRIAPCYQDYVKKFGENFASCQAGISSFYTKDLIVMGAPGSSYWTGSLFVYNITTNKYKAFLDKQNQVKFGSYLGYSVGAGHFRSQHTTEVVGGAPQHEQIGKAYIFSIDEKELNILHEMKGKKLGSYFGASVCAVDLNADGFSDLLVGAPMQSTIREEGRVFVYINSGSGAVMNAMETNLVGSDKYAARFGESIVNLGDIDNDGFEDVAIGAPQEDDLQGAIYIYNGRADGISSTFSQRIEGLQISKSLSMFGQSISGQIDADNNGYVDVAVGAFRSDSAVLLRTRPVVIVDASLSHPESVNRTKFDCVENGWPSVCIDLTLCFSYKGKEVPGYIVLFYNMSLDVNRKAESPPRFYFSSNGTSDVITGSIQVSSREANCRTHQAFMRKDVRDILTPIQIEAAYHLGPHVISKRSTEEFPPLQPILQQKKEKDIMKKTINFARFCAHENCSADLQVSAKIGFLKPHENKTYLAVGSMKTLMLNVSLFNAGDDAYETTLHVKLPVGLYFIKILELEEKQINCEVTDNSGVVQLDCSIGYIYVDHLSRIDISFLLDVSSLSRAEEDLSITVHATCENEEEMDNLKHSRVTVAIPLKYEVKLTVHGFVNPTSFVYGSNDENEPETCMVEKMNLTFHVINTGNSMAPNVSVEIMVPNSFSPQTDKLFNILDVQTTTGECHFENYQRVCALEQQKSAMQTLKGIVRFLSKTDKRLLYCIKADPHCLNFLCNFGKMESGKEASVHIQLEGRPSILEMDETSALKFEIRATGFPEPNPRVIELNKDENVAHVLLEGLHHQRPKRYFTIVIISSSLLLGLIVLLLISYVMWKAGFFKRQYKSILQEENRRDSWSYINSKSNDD
T1 sequence (P26010 20-798): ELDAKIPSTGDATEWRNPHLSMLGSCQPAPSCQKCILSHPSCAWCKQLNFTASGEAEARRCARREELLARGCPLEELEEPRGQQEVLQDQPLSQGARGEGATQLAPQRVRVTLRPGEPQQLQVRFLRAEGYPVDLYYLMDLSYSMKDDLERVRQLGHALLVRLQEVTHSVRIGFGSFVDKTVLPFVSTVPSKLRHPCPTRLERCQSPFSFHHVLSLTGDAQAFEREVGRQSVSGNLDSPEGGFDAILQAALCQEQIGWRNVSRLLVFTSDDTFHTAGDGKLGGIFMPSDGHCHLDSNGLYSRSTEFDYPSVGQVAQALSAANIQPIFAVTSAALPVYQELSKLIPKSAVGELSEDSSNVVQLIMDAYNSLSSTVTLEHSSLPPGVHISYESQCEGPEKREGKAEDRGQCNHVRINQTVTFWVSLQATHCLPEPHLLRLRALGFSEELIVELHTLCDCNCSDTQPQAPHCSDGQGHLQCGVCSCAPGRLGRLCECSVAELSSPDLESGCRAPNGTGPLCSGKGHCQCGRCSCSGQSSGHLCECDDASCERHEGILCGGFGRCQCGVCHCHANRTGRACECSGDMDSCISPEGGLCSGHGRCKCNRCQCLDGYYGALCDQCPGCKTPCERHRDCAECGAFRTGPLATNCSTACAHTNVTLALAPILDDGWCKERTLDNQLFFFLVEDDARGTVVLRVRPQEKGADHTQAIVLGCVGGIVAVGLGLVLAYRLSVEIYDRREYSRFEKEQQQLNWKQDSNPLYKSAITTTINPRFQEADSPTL
Experimental: Three in vitro assays were used to examine the α4β7 mechanistic process used by cells: 1) ligand:receptor affinity, 2) the avidity of those interactions on a cell's surface, and 3) how those interactions fare under an imposing force. In Example 5, a Fluorescence Polarization (FP) assay is used to measure compound activity through binding competition with the fluorescein-labeled peptide. In Example 6, the potency of compounds against α4β7 is measured in the cell-based ligand binding assay (LBA), using RPMI 8866 cells incubated with the compound samples in competition with soluble MAdCAM-1 ligand. In Example 7, activity of compounds is evaluated in a cell adhesion assay that mechanistically tests what occurs in vivo when trafficking cells utilize α4β7 to adhere to MAdCAM-1 expressing HEVs of the gut during the extravasation process. In the cell adhesion assay of Example 7, a MAdCAMI1-(Fc) is coated on plastic, and α4β7 expressing cells (RPMI-8866) are allowed to adhere to the coated surface in the presence of the test compounds. Next, the force of washing with buffer is applied to cells thereby testing the strength of that adhesion. Unattached cells are removed and the remaining adherent cells are quantified.
Example 7 describes a cell adhesion assay.
To each well of a 96 well plate, 100 ug of recombinant human MAdCAM in 100 ul PBS is added and incubated overnight at 4° C. After incubation MAdCAM is removed by aspiration and 200 ul of PBS+1% BSA is added to block the plate for 2 hours at 37° C. and 5% CO2. During this incubation dilution curves of compound are made in 100% DMSO in 96 well V bottom plates. 1.75 ul of diluted compounds are then transferred to a new 96 well U bottom plate containing 20 ul of assay media (phosphate free DMEM+25 mM HEPES+1% BSA). To this an additional 155 ul of assay media is added with mixing by pipetting up and down. This mixture is allowed to incubate for 15 minutes at 37° C. and 5% CO2. After incubation 175 ul of assay media containing 2e6/mL RPMI8866 cells is added to compound containing wells without mixing and plate is allowed to incubate for another 15 minutes at 37° C. and 5% CO2. During this incubation MAdCAM coated plates are removed from incubator and washed twice with 200 ul PBS+0.1% BSA. […] This plate is then incubated at 37° C. and 5% CO2 for 1 hour. After incubation plates are washed twice with 200 ul and once with 50 ul of phenol free RPMI+1% BSA. A final 50 ul of phenol free RPMI+1% BSA is added to wells after last wash. Next 50 ul of Promega cell titer glow is added to the wells. Plate is incubated on shaker for 2 minutes at 200 RPM followed by another 8 minutes off shaker before having the luminescence read on a Biotek Citation 5 plate reader. Raw data is converted to % inhibition compared to bottom of curve and analyzed using a 4-parameter non linear curve in Prism to determine IC50 and IC90.

Row | IC50 [nM] | Structure (SMILES)
1 | < 5 | COc1ccc(C)c(-c2cc(C)c(F)c([C@H](CC(=O)O)NC(=O)C(CC(C)C)n3cc(CCN4CCC4)c(C(F)(F)F)cc3=O)c2)c1C (single isomer, unassigned) [AG-P2]

same assay, conditions: RPMI8866 cells adhering to recombinant human MAdCAM; Table 4 comparative compounds; read-out: CA Assay (Example 7)

Row | Structure (SMILES) | IC50 [nM]
2 | Cc1cccc(C)c1-c1cccc([C@H](CC(=O)O)NC(=O)[C@H](CC(C)C)n2cc(CN3CC(F)C3)ccc2=O)c1 [drawing 594] | > 50
3 | Cc1cccc(C)c1-c1cncc([C@H](CC(=O)O)NC(=O)[C@H](CC(C)C)n2ccccc2=O)c1 | > 100
4 | CC(C)C[C@@H](C(=O)N[C@@H](CC(=O)O)c1ccc(-c2ccccc2)cc1)n1cc(CCN2CC(F)C2)cc(F)c1=O | > 500
5 | Cc1ccc([C@@H](C(=O)N[C@@H](CC(=O)O)c2cncc(-c3c(C)cccc3C)c2)N2CC(C)CCC2=O)cc1 (stereo partly shown) | > 500
6 | Cc1cccc(C)c1-c1cncc([C@H](CC(=O)O)NC(=O)[C@H](CC(C)C)n2ccc(C(F)(F)F)cc2=O)c1 | 10 to 50
7 | Cc1cccc(C)c1-c1cncc([C@H](CC(=O)O)NC(=O)[C@H](CC(C)C)N2CC[C@@H](C(F)(F)F)CC2=O)c1 | > 50

Now from value to molecule:

Row | IC50 [nM] | Structure (SMILES)
8 | > 500 | Cc1ccccc1-c1cccc([C@H](CC(=O)O)NC(=O)[C@H](CC(C)C)n2ccccc2=O)c1
9 | > 500 | Cc1ccccc1-c1cc([C@H](CC(=O)O)NC(=O)C(CC(C)C)n2ccccc2=O)ccc1C#N (stereo partly shown)
10 | > 500 | COc1ccc([C@H](CC(=O)O)NC(=O)C(CC(C)C)n2ccccc2=O)cc1-c1ccccc1C (stereo partly shown)
